Assay [1] has as its target T1, SUMO-activating enzyme (Homo sapiens, UniProt Q9UBT2). Kind of assay: SUMOylation inhibitor hit validation, confirmation, SUMOylation inhibitor project, biochemical, AlphaScreen (AID 2018). It is filed as functional.
Assay [2] deals with T2, Estrogen receptor (Homo sapiens, UniProt P03372).
T2 sequence (P03372 whole entry): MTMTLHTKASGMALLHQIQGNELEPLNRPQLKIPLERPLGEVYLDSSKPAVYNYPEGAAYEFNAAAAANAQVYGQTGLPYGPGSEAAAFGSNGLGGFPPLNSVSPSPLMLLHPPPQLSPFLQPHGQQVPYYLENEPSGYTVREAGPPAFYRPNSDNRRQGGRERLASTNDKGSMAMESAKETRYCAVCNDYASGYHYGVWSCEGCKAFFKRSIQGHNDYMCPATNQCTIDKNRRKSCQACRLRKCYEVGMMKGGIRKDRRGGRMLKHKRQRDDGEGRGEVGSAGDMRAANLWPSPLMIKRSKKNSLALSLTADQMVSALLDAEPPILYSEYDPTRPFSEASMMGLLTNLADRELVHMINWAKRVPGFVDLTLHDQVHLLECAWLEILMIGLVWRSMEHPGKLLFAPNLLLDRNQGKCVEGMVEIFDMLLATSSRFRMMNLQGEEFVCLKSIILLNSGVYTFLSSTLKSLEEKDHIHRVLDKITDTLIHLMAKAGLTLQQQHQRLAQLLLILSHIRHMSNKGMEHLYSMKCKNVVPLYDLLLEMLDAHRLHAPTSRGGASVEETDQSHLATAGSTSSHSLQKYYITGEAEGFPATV

Assay [3] concerns the target T1, SUMO-activating enzyme. In words: inhibitors of in vitro SUMOylation cascade, primary screen, biochemical, HTRF, uHTS (AID 2006). The class given is protein-complex assay.
Assay [4] has as its target T2, Estrogen receptor. In words: potentiators of ERα–SRC-1 coactivator binding, dose response, biochemical, TR-FRET, ERα LBD (AID 737).
For assay [5], the target named is T3, Zinc finger protein mex-5 (Caenorhabditis elegans, UniProt Q9XUB2).
T3 sequence (Q9XUB2 whole entry): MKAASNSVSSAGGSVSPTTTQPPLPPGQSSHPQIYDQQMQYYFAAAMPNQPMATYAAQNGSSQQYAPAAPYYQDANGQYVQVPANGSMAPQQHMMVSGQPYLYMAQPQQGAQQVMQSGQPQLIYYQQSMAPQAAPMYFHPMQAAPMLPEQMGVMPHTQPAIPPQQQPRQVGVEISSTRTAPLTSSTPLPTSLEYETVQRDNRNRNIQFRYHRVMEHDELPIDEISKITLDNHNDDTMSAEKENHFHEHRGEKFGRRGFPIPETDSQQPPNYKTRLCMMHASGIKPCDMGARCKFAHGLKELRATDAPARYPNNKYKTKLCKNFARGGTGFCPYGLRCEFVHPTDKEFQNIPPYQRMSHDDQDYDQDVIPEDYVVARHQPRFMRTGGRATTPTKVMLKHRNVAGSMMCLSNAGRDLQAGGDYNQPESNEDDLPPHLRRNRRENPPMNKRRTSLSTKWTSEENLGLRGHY
Kind of assay: MEX-5/TCR-2 RNA interaction inhibitors, dose response, biochemical, C. elegans, fluorescence polarization (AID 1960).

Assay [6] addresses Large T antigen (Simian virus 40, UniProt P03070). The class given is functional, Betapolyomavirus macacae.
For assay [7], the target named is Intestinal-type alkaline phosphatase (Mus musculus, UniProt P24822). Kind of assay: mouse intestinal alkaline phosphatase activators, dose response, biochemical, luminescence, uHTS hits (AID 488783). The class given is functional.
Assay [8] addresses T4, Alkaline phosphatase, tissue-nonspecific isozyme (Homo sapiens, UniProt P05186).
T4 sequence (P05186 whole entry): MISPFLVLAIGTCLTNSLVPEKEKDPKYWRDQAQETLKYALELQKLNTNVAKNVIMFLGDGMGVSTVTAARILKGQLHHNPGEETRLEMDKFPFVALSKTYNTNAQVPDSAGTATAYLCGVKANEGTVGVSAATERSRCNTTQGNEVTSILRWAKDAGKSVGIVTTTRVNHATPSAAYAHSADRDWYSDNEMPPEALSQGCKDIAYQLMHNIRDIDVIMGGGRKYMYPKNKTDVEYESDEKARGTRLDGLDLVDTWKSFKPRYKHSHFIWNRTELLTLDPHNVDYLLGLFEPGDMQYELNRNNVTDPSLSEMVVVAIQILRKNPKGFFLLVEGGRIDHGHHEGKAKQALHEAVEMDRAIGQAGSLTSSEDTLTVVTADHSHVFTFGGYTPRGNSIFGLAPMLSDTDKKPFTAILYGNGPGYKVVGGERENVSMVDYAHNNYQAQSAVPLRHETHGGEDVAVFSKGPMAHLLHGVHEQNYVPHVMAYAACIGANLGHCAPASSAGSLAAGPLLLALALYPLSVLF
Kind of assay: TNAP enzyme activators, dose response, selectivity assay for mouse IAP activator project, biochemical, TNAP isozyme, mouse IAP uHTS hits (AID 488880). It is filed as functional.

In assay [9] the target is Intestinal-type alkaline phosphatase (Homo sapiens, UniProt P09923). Kind of assay: activation of human intestinal alkaline phosphatase – biochemical, dose response (AID 488873). The class given is functional.
Assay [10] deals with T5, RNA-binding protein pos-1 (Caenorhabditis elegans, UniProt G5EF15).
T5 sequence (G5EF15 whole entry): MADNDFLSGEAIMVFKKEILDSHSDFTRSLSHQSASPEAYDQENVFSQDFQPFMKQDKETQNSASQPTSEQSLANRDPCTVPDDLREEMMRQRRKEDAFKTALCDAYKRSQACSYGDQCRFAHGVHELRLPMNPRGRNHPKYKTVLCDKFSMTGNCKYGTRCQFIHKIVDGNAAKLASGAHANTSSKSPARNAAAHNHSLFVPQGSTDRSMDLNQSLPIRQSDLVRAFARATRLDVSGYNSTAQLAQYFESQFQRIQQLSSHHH
Kind of assay: inhibitors of POS-1/mex-3 RNA binding, dose response, biochemical, fluorescence polarization (AID 1964).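 Note: purified POS-1 fused to maltose binding protein made in E. coli; potency of compounds blocking POS-1 binding to fluorescent RNA.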

In assay [11] the target is T6, G-protein coupled receptor 55 (Homo sapiens, UniProt Q9Y2T6). Kind of assay: SAR analysis of selective Agonists of GPR55 using an Image-Based Assay. [Related pubchem assays (depositor defined):AID1961, AID1965]. The class given is functional.
In assay [12] the target is Cannabinoid receptor 1 (Homo sapiens, UniProt P21554). Kind of assay: SAR analysis of antagonists of the Cannabinoid Receptor 1 using an Image-Based Assay. [Related pubchem assays (depositor defined):AID1961, AID1965]. It is filed as functional.
The target in assay [13] is T7, Cannabinoid receptor 2 (Homo sapiens, UniProt P34972). In words: SAR analysis of agonists of the Cannabinoid Receptor 2 using an Image-Based Assay - Set 2. [Related pubchem assays (depositor defined):AID1961, AID1965]. The class given is functional.
Assay [14] concerns the target T6, G-protein coupled receptor 55. Kind of assay: GPR55 agonists via beta-arrestin recruitment, primary screen, imaging, U2OS cells, beta-arrestin-GFP redistribution (AID 1961). It is filed as functional.
In assay [15] the target is T7, Cannabinoid receptor 2. In words: SAR analysis of antagonists of the Cannabinoid Receptor 2 using an Image-Based Assay - Set 2. [Related pubchem assays (depositor defined):AID1961, AID1965]. The class given is functional.
Assay [16] deals with T8, Delta-type opioid receptor (Homo sapiens, UniProt P41143). Kind of assay: SAR Analysis of Antagonists of the DOR Receptor using an Image-Based Assay - Set 2. [Related pubchem assays (depositor defined):AID1777, AID1785, AID1786, AID1966, AID2133, AID2136, AID2284, AID2285, AID2357]. The class given is functional.
The target in assay [17] is T9, Kappa-type opioid receptor (Homo sapiens, UniProt P41145). Kind of assay: SAR analysis of Antagonists of the Kappa Opioid Receptor (KOR) using an Image-Based Assay - Set 2. [Related pubchem assays (depositor defined):AID1777, AID1785, AID1786, AID1966, AID2133, AID2136, AID2284, AID2285, AID2348]. The class given is functional.
Assay [18] addresses T9, Kappa-type opioid receptor. In words: SAR analysis of small molecule agonists of the kappa opioid receptor via a luminescent beta-arrestin assay - Set 2. [Related pubchem assays (depositor defined):AID1777, AID1785, AID1786, AID1966, AID2133, AID2136, AID2284, AID449737]. It is filed as functional.
Assay [19] deals with T10, Mu-type opioid receptor (Homo sapiens, UniProt P35372). In words: SAR Analysis of Agonists of the MOR Receptor using an Image-Based Assay - Set 2. [Related pubchem assays (depositor defined):AID1777, AID1785, AID1786, AID1966, AID2133, AID2136, AID2284, AID2285, AID2352]. The class given is functional.
Assay [20] concerns the target T8, Delta-type opioid receptor. In words: SAR Analysis of Agonists of the DOR Receptor using an Image-Based Assay - Set 2. [Related pubchem assays (depositor defined):AID1777, AID1785, AID1786, AID1966, AID2133, AID2136, AID2284, AID2285, AID2370]. It is filed as functional.
In assay [21] the target is T10, Mu-type opioid receptor. In words: SAR Analysis of Antagonists of the MOR Receptor using an Image-Based Assay - Set 2. [Related pubchem assays (depositor defined):AID1777, AID1785, AID1786, AID1966, AID2133, AID2136, AID2284, AID2285, AID2420]. It is filed as functional.
Assay [22] has as its target T9, Kappa-type opioid receptor. Kind of assay: SAR analysis of Agonists of the Kappa Opioid Receptor (KOR) using an Image-Based Assay - Set 2. [Related pubchem assays (depositor defined):AID1777, AID1786, AID1966, AID2133, AID2136, AID2284, AID2285, AID2359]. It is filed as functional.

Calls of active or inactive are those of the source.

T9 sequence (P41145 whole entry): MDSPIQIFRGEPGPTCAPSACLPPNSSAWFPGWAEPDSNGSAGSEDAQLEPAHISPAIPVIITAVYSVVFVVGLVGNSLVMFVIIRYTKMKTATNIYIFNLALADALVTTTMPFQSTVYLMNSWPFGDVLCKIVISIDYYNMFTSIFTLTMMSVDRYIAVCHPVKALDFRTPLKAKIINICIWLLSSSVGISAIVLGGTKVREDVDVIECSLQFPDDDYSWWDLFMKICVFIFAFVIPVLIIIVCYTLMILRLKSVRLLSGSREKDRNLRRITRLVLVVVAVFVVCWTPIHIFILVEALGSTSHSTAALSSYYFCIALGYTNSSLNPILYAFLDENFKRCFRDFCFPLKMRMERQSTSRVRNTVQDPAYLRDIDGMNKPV
T8 sequence (P41143 whole entry): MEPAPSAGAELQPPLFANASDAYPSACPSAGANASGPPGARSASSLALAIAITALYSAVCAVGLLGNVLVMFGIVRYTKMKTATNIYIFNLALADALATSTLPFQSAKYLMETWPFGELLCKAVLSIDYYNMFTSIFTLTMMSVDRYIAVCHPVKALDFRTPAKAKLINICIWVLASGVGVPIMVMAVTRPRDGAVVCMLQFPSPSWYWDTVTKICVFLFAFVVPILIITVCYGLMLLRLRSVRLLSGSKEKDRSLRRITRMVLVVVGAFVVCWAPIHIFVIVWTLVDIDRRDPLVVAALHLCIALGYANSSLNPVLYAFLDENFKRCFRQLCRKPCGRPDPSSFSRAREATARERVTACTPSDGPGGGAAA
T10 sequence (P35372 whole entry): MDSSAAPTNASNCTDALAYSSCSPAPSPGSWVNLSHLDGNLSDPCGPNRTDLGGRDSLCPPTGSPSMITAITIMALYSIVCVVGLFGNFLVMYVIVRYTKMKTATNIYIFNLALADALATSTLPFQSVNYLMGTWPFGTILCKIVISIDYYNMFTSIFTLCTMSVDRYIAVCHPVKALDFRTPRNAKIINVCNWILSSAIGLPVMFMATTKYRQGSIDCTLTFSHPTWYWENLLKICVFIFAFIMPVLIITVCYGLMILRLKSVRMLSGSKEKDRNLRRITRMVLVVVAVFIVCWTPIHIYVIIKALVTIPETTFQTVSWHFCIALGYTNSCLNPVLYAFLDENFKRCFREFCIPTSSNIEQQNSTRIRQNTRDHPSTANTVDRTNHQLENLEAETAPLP
T1 sequence (Q9UBE0 whole entry): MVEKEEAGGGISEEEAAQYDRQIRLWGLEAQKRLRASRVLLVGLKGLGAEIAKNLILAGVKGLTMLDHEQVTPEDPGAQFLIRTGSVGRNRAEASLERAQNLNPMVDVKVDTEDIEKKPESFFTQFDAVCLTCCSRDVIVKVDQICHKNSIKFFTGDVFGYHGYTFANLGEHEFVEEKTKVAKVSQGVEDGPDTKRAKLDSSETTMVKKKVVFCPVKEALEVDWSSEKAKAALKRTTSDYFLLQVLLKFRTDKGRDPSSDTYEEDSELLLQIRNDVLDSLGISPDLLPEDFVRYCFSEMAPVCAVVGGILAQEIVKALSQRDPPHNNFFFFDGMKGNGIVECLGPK
T1 sequence (Q9UBT2 whole entry): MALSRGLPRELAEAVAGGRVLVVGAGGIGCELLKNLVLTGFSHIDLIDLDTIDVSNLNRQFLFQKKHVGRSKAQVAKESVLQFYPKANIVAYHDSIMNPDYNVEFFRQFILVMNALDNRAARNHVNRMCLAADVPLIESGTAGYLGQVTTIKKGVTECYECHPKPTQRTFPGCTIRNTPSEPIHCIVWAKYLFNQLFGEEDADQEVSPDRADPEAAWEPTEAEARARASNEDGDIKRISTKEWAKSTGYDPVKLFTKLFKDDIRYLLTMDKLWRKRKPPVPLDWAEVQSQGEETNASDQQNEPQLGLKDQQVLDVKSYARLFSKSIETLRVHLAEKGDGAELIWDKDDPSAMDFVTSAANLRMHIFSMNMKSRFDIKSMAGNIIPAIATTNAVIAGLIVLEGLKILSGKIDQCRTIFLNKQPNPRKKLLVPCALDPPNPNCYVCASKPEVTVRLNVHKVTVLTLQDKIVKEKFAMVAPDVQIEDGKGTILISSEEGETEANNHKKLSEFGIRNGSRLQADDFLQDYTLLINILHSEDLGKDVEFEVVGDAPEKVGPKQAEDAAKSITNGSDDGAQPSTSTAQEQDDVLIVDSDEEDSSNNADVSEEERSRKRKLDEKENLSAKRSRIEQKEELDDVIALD
T6 sequence (Q9Y2T6 whole entry): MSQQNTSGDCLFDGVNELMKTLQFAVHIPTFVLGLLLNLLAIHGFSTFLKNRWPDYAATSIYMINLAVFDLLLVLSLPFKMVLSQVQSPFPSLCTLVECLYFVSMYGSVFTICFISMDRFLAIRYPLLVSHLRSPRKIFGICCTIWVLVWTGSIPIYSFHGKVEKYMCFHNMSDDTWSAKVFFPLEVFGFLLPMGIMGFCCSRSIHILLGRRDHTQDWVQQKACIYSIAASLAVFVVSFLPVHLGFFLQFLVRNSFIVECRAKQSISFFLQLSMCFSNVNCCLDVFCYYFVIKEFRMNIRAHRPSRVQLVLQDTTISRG
T7 sequence (P34972 whole entry): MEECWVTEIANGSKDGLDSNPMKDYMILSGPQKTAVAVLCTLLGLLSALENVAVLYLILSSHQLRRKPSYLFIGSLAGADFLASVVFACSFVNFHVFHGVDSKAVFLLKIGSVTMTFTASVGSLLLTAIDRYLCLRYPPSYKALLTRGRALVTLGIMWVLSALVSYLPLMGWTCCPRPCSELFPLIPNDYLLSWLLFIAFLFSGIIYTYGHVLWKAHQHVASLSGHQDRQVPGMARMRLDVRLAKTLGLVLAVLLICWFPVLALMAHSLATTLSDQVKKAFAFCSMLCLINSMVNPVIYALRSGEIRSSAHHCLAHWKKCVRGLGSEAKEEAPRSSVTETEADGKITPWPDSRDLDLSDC
Intestinal-type alkaline phosphatase (Homo sapiens, UniProt P09923), sequence (P09923 whole entry): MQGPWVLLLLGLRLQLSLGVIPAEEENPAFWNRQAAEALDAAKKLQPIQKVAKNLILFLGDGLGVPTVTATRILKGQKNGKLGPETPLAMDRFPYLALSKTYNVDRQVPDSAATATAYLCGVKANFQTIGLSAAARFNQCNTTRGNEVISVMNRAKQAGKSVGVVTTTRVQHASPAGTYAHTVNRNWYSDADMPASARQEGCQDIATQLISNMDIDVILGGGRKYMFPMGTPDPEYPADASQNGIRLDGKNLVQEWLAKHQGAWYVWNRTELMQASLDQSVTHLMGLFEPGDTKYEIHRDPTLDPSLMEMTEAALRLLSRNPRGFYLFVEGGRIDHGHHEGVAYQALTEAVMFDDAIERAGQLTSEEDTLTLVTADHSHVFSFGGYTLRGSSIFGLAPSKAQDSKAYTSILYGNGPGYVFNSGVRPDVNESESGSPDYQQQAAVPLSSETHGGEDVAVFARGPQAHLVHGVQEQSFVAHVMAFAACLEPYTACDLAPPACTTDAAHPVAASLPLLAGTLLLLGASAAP
Large T antigen, sequence (P03070 whole entry): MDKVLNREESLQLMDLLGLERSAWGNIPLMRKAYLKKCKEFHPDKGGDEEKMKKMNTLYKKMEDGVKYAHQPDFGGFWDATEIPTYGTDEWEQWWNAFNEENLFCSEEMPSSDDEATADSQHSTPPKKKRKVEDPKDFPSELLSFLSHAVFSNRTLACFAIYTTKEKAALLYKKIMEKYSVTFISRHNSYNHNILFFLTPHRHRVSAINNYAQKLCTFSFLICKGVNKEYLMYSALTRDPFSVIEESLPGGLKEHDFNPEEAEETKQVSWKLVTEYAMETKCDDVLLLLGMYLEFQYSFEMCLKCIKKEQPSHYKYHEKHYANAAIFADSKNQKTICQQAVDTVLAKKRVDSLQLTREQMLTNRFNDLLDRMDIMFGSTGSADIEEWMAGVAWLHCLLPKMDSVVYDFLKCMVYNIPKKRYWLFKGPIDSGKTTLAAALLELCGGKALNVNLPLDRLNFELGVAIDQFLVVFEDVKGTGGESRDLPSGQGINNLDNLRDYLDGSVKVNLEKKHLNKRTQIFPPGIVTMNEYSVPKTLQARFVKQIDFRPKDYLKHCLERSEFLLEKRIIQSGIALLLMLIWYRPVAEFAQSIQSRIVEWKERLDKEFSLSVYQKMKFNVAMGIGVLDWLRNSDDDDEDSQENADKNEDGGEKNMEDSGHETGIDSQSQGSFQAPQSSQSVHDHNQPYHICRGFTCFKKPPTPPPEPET
Intestinal-type alkaline phosphatase (Mus musculus, UniProt P24822), sequence (P24822 whole entry): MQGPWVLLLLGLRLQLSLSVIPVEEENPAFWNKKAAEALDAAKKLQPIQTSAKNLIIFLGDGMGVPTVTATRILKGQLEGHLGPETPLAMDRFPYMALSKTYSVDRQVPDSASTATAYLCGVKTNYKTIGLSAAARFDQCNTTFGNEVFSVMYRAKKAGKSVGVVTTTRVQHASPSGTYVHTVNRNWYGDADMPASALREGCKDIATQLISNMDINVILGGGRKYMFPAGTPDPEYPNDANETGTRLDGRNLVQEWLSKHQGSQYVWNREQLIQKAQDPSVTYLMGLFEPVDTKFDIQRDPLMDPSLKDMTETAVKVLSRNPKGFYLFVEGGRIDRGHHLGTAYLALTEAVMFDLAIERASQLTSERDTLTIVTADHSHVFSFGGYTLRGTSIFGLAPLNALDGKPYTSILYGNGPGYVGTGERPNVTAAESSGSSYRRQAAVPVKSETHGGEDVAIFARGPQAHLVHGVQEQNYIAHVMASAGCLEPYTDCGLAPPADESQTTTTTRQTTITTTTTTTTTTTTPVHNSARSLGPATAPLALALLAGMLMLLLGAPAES

In the case of `O=c1cc(CSc2nnnn2-c2ccccc2)nc(Nc2ccc(F)cc2)[nH]1`, the IC50 in assay [1] is 11.5 µM (active); in [2], > 50 µM (not active); in [3], 6.47 µM (active). For the same molecule, in assay [4], the EC50 was 12.5 µM (active).
Take `Oc1ccc(-c2csc(Nc3ccccn3)n2)cc1O`: the concentration giving a half-maximal response (EC50) in assay [5] is 17.3 µM (active); in assay [7], 24.9 µM (active); in [8], 47.9 µM (active); in [9], 48.7 µM (active); in assay [10], 74.1 µM (active). Further, in [6], the IC50 was 51.7 µM (active).
As for `COc1ccc(S(=O)(=O)N2CCOCC2)cc1NC(=O)c1cc2c(s1)CCCC2`, the 50% effective concentration (EC50) is 0.305 µM (active) in assay [11], > 32 µM (inactive) in assay [13] and 0.524 µM (active) in assay [14]. Also, the IC50 in assay [12] and in [15] was > 32 µM (inactive) throughout.
In the case of `Cc1ccc(CSc2nnc(-c3ccccn3)n2Cc2ccco2)cc1`, the IC50 in assay [16], in assay [17] and in assay [21] was > 32 µM (inactive) each time. In addition, the 50% effective concentration (EC50) in [18] is 6.21 µM (active); in [19] it was > 32 µM (inactive); in assay [20], > 32 µM (inactive); in [22], 5.21 µM (active).

For the origin of these results see ChEMBL document CHEMBL1201862, “PubChem BioAssay data set” (2004).
